These results are taken from patent US8415379B2, “Pyridines” (Hoffmann-La Roche Inc., priority 2009, dated 2013).

Structures are written as SMILES.

In the assay the target is T1, GABA A α5 (human receptors of composition α5β3γ2) (Homo sapiens, UniProt P18507+P31644).
T1 construct: expressed in transfected cells; host or cells: HEK293 cells, transiently transfected; membrane homogenates used
Briefly: [3H]flumazenil competition binding assay, human GABA A α5β3γ2 receptors in HEK293 cells. Conditions: displacement of 0.5 nM [3H]flumazenil, HEK293 membranes, 1 hour at 4° C., means of two determinations, read-out: hKi GABA A α5. As to the method:
The affinity of compounds at GABA A receptor subtypes was measured by competition for [^3H]flumazenil (85 Ci/mmol; Roche) binding to HEK293 cells expressing rat (stably transfected) or human (transiently transfected) receptors of composition α1β3γ2, α2β3γ2, α3β3γ2 and α5β3γ2.
Cell pellets were suspended in Krebs-tris buffer (4.8 mM KCl, 1.2 mM CaCl2, 1.2 mM MgCl2, 120 mM NaCl, 15 mM Tris; pH 7.5; binding assay buffer), homogenized by polytron for ca. 20 sec on ice and centrifuged for 60 min at 4° C. (50000 g; Sorvall, rotor: SM24=20000 rpm). The cell pellets were re-suspended in Krebs-tris buffer and homogenized by polytron for ca. 15 sec on ice. Protein was measured (Bradford method, Bio-Rad) and aliquots of 1 mL were prepared and stored at −80° C.
Radioligand binding assays were carried out in a volume of […] (96-well plates) which contained […] of cell membranes, [^3H]flumazenil at a concentration of 1 nM for α1, α2 and α3 subunits and 0.5 nM for α5 subunits and the test compound in the range of […]. Nonspecific binding was defined by 10^−5 M diazepam and typically represented less than 5% of the total binding. Assays were incubated to equilibrium for 1 hour at 4° C. and harvested onto GF/C uni-filters (Packard) by filtration using a Packard harvester and washing with ice-cold wash buffer (50 mM Tris; pH 7.5). After drying, filter-retained radioactivity was detected by liquid scintillation counting. Ki values were calculated using Excel-Fit (Microsoft) and are the means of two determinations.
For `CC(NC(=O)c1ccc(OCc2c(-c3ccc(F)cc3)noc2CO)cn1)C(F)(F)F` (centres unmarked) [Example 32, 5-[3-(4-Fluoro-phenyl)-5-hydroxymethyl-isoxazol-4-ylmethoxy]-pyridine-2-carboxylic acid (2,2,2-trifluoro-1-methyl-ethyl)-amide], the Ki worked out at 60.4 nM.
Take `O=C(NCC(F)(F)F)c1ccc(OCc2c(-c3ccc(F)cc3)noc2CO)cn1` [Example 33, 5-[3-(4-Fluoro-phenyl)-5-hydroxymethyl-isoxazol-4-ylmethoxy]-pyridine-2-carboxylic acid (2,2,2-trifluoro-ethyl)-amide]: the Ki came to 10.2 nM.
With `CC[C@@H](CO)NC(=O)c1ccc(OCc2c(-c3ccc(F)cc3)noc2CO)cn1` [Example 34, 5-[3-(4-Fluoro-phenyl)-5-hydroxymethyl-isoxazol-4-ylmethoxy]-pyridine-2-carboxylic acid ((S)-1-hydroxymethyl-propyl)-amide] the figure was 8.3 nM; with `Cn1cc(NC(=O)c2ccc(OCc3c(-c4ccc(F)cc4)noc3CO)cn2)cn1` [Example 35, 5-[3-(4-Fluoro-phenyl)-5-hydroxymethyl-isoxazol-4-ylmethoxy]-pyridine-2-carboxylic acid (1-methyl-1H-pyrazol-4-yl)-amide], 3.4 nM; with `CC(C)(C)NC(=O)c1ccc(OCc2c(-c3ccc(F)cc3)noc2CO)cn1` [Example 36, 5-[3-(4-Fluoro-phenyl)-5-hydroxymethyl-isoxazol-4-ylmethoxy]-pyridine-2-carboxylic acid tert-butylamide], 74.2 nM.
For `O=C(c1ccc(OCc2c(-c3ccc(F)cc3)noc2CO)cn1)N1CCC(F)(F)CC1` [Example 37, (4,4-Difluoro-piperidin-1-yl)-{5-[3-(4-fluoro-phenyl)-5-hydroxymethyl-isoxazol-4-ylmethoxy]-pyridin-2-yl}-methanone], the Ki was found to be 10.2 nM.
On to `O=C(NN1CCCC1)c1ccc(OCc2c(-c3ccc(F)cc3)noc2CO)cn1` [Example 38, 5-[3-(4-Fluoro-phenyl)-5-hydroxymethyl-isoxazol-4-ylmethoxy]-pyridine-2-carboxylic acid pyrrolidin-1-ylamide], for which the Ki worked out at 3.4 nM.
Take `O=C(NN1CCOCC1)c1ccc(OCc2c(-c3ccc(F)cc3)noc2CO)cn1` [Example 39, 5-[3-(4-Fluoro-phenyl)-5-hydroxymethyl-isoxazol-4-ylmethoxy]-pyridine-2-carboxylic acid morpholin-4-ylamide]: the Ki is 0.8 nM.
